Assay results reported in patent publication US8198438B2, “Pyrrolotriazine kinase inhibitors” (Bristol-Myers Squibb Company, priority 2007, dated 2012).
pIC50: −log10 of the molar value.

Columns and labels:
Format in all cases: biochemical
GST-Met = GST-Met (Homo sapiens, UniProt P08581); assay: Met Kinase Assay; conditions: 1 μM ATP; 33P γ-ATP, poly(Glu/Tyr); 1 h at 30° C.
Description: Kinase reactions consisted of 0.75 ng of baculovirus expressed GST-Met, 3 ug poly(Glu/Tyr) (Sigma), 0.12 μCi 33P γ-ATP, 1 μM ATP in 30 μl kinase buffer (20 mm TRIS-C1, 5 mM MnCl2, 0.1 mg/ml BSA, 0.5 mM DTT). Reactions were incubated for 1 h at 30° C. and stopped by the addition of cold trichloroacetic acid (TCA) to a final concentration 8%. TCA precipitates were collected onto GF/C unifilter plates using a Filtermate universal harvester and the filters were quantitated using a TopCount 96-well liquid scintillation counter. Dose response curves were generated to determine the concentration required to inhibit 50% of kinase activity (IC50). Compounds were dissolved at 10 mM in dimethylsulfoxide (DMSO) and evaluated at seven concentrations, each in triplicate.

FLT3 = biological target: T1, FLT3 (Homo sapiens, UniProt P36888); assay: FLT3 kinase assay; conditions: ATP 200 μM; FLT3 4.5 nM; Caliper LabChip 3000
T1 sequence (P36888 27-993): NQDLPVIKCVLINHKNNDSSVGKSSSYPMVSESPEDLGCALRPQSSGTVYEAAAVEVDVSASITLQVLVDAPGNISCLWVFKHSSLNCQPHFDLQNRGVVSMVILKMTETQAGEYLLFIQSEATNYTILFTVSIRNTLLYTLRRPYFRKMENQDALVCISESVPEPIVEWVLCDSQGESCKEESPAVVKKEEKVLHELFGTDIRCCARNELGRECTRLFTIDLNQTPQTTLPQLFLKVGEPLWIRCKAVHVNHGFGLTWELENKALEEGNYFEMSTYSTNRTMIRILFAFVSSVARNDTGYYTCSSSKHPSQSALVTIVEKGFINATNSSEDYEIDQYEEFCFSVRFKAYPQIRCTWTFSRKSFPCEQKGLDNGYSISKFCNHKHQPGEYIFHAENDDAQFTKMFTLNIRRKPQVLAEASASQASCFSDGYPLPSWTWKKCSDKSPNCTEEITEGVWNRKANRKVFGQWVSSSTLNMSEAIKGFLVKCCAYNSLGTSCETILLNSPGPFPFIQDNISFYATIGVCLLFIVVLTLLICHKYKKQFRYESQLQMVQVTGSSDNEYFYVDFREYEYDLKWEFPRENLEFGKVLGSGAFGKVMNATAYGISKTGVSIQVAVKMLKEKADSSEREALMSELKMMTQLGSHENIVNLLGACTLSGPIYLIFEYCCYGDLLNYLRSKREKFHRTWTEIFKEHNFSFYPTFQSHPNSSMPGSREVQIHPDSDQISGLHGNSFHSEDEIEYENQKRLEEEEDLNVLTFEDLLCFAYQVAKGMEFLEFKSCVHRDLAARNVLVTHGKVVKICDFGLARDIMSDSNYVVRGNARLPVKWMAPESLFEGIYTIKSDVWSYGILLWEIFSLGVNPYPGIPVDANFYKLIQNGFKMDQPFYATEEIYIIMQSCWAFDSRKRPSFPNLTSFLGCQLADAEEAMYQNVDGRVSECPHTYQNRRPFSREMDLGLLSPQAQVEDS
Description: (§1) The assays were performed in U-bottom 384-well plates. The final assay volume was 30 μl prepared from 15 μl additions of enzyme and substrates (fluoresceinated FLT3 substrate peptide and ATP) and test compounds in assay buffer (100 mM HEPES pH 7.4, 10 mM MgCl2, 0.015% Brij35 and 4 mM DTT). The reaction was initiated by the combination of FLT3 with substrates and test compounds. The reaction was incubated at room temperature for 60 min. and terminated by adding 30 μl of 35 mM EDTA to each sample. The reaction mixture was analyzed on the Caliper LabChip 3000 by electrophoretic separation of the fluorescent substrate and phosphorylated product. Inhibition data were calculated by comparison to no enzyme control reactions for 100% inhibition and vehicle-only reactions for 0% inhibition. The final concentration of reagents in the assays is ATP, 200 μM, FL-peptide, 1.5 μM; FLT3, 4.5 nM and DMSO, 1.6%. Dose response curves were generated to determine the concentration required inhibiting 50% of kinase activity (IC50). Compounds were dissolved at 10 mM in dimethylsulfoxide (DMSO) and evaluated at eleven concentrations, each in duplicate. IC50 values were derived by non-linear regression analysis.

CDK2E = CDK2E (Homo sapiens, UniProt P24941); assay: CDK 2/Cyclin E Kinase Assay; conditions: ATP 30 μM; CDK2E 0.2 nM; Caliper LabChip 3000
Description: A. CDK 2/Cyclin E Kinase Assay
as §1, with “(fluoresceinated CDK2E” for “(fluoresceinated FLT3”, “of bacterially expressed, CDK2E” for “of FLT3”, “phosphorylated product” for “phosphorylated product.”, “ATP, 30 μM;” for “ATP, 200 μM,”, “μM; CDK2E, 0.2 nM;” for “μM; FLT3, 4.5 nM”

GSK3-β = biological target: T2, GSK3-β (Homo sapiens, UniProt P49841); assay: GSK3-β kinase assay; conditions: ATP 30 μM; His-GSK3B 2.4 nM; Caliper LabChip 3000; read-out: GSK-3β IC50
T2 construct: His
Description: (§2) The assays were performed in U-bottom 384-well plates. The final assay volume was 30 μl prepared from 15 μl additions of enzyme and substrates (fluoresceinated peptide FL-GSK substrate and ATP) and test compounds in assay buffer (100 mM HEPES pH 7.2, 10 mM MgCl2, 0.015% Brij35, 25 mM β-glycerolphosphate and 4 mM DTT). The reaction was initiated by the combination of GSK3-β with substrates and test compounds. The reaction was incubated at room temperature for 60 min. and terminated by adding 30 μl of 35 mM EDTA to each sample. The reaction mixture was analyzed on the Caliper LabChip 3000 (Caliper, Hopkinton, Mass.) by electrophoretic separation of the fluorescent substrate and phosphorylated product Inhibition data were calculated by comparison to no enzyme control reactions for 100% inhibition and vehicle-only reactions for 0% inhibition. The final concentration of reagents in the assays is ATP, 30 μM; FL-GSK substrate, 1.5 μM; His-GSK3B, 2.4 nM; and DMSO, 1.6%.

IGF1-receptor = IGF1-receptor (Homo sapiens, UniProt P08069); assay: IGF1-Receptor Tyrosine Kinase Assay; conditions: ATP 25 μM; IGF1-Receptor 14 nM; Caliper LabChip 3000; read-out: IGF1R IC50
Description: D. IGF1-Receptor Tyrosine Kinase Assay
as §1, with “(fluoresceinated IGF1R” for “(fluoresceinated FLT3”, “mM MnCl2,” for “mM MgCl2,”, “of IGF1-receptor” for “of FLT3”, “ATP, 25 μM;” for “ATP, 200 μM,”, “μM; IGF1-Receptor, 14 nM;” for “μM; FLT3, 4.5 nM”, “regression analysis” for “regression analysis.”

JAK2 = JAK2 (Homo sapiens, UniProt O60674); assay: JAK2 kinase assay; conditions: ATP 30 μM; activated JAK2; Caliper LabChip 3000
Description: as §2, with “FL-JAK2” for “FL-GSK”, “activated JAK2” for “GSK3-β”, “product.” for “product”, “FL-JAK2 peptide,” for “FL-GSK substrate,”, “[…], 2.6” for “His-GSK3B, 2.4”

T2 sequence (P49841 whole entry): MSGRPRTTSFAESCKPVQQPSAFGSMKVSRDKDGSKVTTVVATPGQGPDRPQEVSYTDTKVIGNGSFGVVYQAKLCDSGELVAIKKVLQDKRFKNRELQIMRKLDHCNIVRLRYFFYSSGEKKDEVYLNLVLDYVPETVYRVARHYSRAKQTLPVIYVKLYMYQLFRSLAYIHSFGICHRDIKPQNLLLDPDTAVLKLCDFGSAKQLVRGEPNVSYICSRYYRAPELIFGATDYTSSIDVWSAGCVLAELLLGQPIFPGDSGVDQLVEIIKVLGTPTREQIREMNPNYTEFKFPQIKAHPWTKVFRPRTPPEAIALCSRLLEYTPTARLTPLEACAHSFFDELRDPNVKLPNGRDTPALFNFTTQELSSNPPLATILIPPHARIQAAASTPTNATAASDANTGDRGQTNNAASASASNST
Sequence of JAK2 (O60674 whole entry): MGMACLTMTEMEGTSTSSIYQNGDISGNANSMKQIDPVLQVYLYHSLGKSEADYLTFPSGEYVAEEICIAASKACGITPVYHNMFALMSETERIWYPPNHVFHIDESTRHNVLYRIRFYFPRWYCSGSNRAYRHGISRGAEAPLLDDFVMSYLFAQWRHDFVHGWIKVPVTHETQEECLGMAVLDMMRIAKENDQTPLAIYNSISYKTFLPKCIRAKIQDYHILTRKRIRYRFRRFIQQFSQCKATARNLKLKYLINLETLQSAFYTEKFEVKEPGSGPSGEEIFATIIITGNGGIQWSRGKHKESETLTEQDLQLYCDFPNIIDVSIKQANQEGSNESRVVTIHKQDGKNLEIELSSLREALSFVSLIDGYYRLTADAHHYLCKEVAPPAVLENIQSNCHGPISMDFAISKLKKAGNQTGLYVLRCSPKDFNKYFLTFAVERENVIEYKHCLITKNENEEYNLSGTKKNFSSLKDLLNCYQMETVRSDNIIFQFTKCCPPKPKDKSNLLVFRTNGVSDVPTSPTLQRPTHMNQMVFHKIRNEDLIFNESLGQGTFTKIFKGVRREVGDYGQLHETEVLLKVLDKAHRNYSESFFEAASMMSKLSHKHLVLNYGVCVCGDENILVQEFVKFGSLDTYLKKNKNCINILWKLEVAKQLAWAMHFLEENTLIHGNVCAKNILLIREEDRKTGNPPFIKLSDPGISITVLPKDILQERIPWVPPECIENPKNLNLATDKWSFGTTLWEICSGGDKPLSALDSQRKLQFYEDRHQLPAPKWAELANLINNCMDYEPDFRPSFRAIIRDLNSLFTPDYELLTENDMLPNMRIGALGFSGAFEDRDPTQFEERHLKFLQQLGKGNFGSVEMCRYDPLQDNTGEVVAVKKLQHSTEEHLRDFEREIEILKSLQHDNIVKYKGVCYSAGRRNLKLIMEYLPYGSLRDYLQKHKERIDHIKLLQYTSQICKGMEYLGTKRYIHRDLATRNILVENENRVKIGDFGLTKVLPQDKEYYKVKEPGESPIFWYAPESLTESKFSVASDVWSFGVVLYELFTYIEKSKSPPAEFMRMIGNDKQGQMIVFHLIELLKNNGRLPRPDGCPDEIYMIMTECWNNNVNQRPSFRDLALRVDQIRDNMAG
Sequence of GST-Met (P08581 25-1390): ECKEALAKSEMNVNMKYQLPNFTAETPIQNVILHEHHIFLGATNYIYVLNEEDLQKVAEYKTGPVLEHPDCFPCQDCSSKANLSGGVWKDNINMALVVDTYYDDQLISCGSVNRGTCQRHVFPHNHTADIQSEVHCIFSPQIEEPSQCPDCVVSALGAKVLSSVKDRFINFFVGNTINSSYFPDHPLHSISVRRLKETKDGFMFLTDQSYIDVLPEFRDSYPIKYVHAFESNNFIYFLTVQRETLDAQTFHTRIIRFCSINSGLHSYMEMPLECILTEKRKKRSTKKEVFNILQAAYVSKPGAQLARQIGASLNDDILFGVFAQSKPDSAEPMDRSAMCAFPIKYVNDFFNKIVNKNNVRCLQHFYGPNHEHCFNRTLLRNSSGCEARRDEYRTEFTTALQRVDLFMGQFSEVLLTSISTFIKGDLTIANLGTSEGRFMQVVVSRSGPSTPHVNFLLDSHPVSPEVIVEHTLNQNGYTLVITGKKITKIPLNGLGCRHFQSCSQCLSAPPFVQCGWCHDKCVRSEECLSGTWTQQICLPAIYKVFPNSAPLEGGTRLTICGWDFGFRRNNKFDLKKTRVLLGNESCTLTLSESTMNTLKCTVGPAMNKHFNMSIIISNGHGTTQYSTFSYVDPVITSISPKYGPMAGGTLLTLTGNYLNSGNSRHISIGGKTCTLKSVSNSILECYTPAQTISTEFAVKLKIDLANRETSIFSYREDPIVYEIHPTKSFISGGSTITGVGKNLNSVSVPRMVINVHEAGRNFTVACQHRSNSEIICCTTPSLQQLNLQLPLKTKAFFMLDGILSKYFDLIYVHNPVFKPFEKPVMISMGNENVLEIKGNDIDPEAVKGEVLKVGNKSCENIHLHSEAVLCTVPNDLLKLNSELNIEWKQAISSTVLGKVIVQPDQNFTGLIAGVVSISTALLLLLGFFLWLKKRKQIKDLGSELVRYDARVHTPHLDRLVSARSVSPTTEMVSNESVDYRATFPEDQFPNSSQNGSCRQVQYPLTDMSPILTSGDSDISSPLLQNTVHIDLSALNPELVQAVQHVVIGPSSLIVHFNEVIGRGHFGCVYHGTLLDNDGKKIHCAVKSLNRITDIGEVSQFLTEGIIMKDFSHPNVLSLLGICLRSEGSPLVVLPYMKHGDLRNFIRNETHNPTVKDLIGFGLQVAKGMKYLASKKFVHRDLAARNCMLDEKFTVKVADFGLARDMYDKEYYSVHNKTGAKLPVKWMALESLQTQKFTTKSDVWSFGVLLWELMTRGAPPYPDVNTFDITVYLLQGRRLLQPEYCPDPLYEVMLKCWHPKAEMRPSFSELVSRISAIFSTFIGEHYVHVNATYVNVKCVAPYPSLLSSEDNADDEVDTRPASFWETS
Sequence of IGF1-receptor (P08069 31-1367): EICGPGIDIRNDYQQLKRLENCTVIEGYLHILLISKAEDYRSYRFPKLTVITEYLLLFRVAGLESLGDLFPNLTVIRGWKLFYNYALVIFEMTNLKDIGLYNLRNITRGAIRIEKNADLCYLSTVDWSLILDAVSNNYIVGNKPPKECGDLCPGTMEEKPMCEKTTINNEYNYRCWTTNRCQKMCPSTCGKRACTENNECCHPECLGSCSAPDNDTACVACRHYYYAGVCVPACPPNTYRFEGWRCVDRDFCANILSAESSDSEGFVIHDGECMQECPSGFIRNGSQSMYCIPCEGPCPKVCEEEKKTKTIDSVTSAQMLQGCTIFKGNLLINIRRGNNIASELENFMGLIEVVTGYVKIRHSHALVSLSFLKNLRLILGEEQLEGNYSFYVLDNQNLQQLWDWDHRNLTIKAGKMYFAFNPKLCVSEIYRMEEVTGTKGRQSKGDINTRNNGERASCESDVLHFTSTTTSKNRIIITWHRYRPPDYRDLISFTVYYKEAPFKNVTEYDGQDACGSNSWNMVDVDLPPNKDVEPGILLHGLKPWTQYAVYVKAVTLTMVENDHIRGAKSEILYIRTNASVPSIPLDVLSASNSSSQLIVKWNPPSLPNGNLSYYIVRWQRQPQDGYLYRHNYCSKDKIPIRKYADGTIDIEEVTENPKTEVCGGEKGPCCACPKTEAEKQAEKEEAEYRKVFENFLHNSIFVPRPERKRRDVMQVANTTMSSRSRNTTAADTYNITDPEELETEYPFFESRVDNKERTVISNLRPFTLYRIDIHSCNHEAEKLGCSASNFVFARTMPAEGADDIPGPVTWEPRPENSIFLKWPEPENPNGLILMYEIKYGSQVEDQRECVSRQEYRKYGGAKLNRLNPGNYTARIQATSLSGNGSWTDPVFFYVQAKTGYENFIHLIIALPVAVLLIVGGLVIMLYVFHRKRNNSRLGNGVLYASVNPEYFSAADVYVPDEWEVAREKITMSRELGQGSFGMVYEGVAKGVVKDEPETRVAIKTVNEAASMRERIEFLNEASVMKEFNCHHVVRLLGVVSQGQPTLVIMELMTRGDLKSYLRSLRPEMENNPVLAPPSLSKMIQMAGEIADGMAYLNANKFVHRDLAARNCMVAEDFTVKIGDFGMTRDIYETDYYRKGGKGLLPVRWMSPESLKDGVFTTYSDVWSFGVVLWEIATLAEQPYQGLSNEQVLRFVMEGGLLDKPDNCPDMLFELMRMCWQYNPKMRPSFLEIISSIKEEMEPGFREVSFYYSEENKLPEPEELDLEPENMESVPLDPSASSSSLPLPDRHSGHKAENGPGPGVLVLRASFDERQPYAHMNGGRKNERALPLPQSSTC

| Compound | pIC50 (GST-Met) | pIC50 (FLT3) | pIC50 (CDK2E) | pIC50 (GSK3-β) | pIC50 (IGF1-receptor) | pIC50 (JAK2) |
| --- | --- | --- | --- | --- | --- | --- |
| O=C(c1nccs1)N1CCC[C@H]1c1nc(Nc2cc(C3CC3)[nH]n2)c2cccn2n1 [Example 2, (S)-(2-(4-(5-Cyclopropyl-1H-pyrazol-3-ylamino)pyrrolo[1,2-f][1,2,4]triazin-2-yl)pyrrolidin-1-yl)(thiazol-2-yl)methanone] | 6.77 | 9.00 | 7.06 | 7.62 | 8.30 |  |
| CC(=O)N1CCC[C@H]1c1nc(Nc2cc(C3CC3)[nH]n2)c2cccn2n1 [Example 4, (S)-1-(2-(4-(5-Cyclopropyl-1H-pyrazol-3-ylamino)pyrrolo[1,2-f][1,2,4]-triazin-2-yl)pyrrolidin-1-yl)ethanone] | 5.75 | 9.00 | 8.30 | 7.70 | 6.87 |  |
| O=C(c1cc[nH]n1)N1CCC[C@H]1c1nc(Nc2cc(C3CC3)[nH]n2)c2cccn2n1 [Example 7, (S)-(2-(4-(5-Cyclopropyl-1H-pyrazol-3-ylamino)pyrrolo[1,2-f][1,2,4]triazin-2-yl)pyrrolidin-1-yl)(1H-pyrazol-3-yl)methanone] | 5.93 | 8.40 | 7.27 | 7.29 | 7.17 | 7.44 |
| O=C(c1nccs1)N1CCC[C@@H]1c1nc(Nc2cc(C3CC3)[nH]n2)c2cccn2n1 [Example 15, (R)-(2-(4-(5-Cyclopropyl-1H-pyrazol-3-ylamino)pyrrolo[1,2-f][1,2,4]triazin-2-yl)pyrrolidin-1-yl)(thiazol-2-yl)methanone] | 5.20 | 7.62 | 6.79 | 7.96 | 5.60 | 6.49 |

Second part, the compound after the results:

| pIC50 (GST-Met) | pIC50 (FLT3) | pIC50 (CDK2E) | pIC50 (GSK3-β) | pIC50 (IGF1-receptor) | pIC50 (JAK2) | Compound |
| --- | --- | --- | --- | --- | --- | --- |
| 7.55 | 7.54 | 5.73 | 6.54 |  |  | O=C(c1ccc(F)nc1)N1CCC[C@H]1c1nc(Nc2cc(C3CC3)[nH]n2)c2cccn2n1 [Example 1, (S)-(2-(4-(5-Cyclopropyl-1H-pyrazol-3-ylamino)pyrrolo[1,2-f][1,2,4]triazin-2-yl)pyrrolidin-1-yl)(6-fluoropyridin-3-yl)methanone] |
| 4.98 | 7.01 | 6.21 | 7.04 | 5.39 | 4.97 | O=C(C1CCNCC1)N1CCC[C@H]1c1nc(Nc2cc(C3CC3)[nH]n2)c2cccn2n1 [Example 6, (S)-(2-(4-(5-Cyclopropyl-1H-pyrazol-3-ylamino)pyrrolo[1,2-f][1,2,4]triazin-2-yl)pyrrolidin-1-yl)(piperidin-4-yl)methanone] |
| 4.97 | 8.22 | 6.59 | 8.52 | 5.31 | 5.35 | O=C(c1cnccn1)N1CCC[C@@H]1c1nc(Nc2cc(C3CC3)[nH]n2)c2cccn2n1 [Example 12, (R)-(2-(4-(5-Cyclopropyl-1H-pyrazol-3-ylamino)pyrrolo[1,2-f][1,2,4]triazin-2-yl)pyrrolidin-1-yl)(pyrazin-2-yl)methanone] |
|  | 6.51 | 4.76 | 5.35 | 6.50 | 4.66 | CC(C)(C)OC(=O)N1CCC(C(=O)N2CCC[C@@H]2c2nc(Nc3cc(C4CC4)[nH]n3)c3cccn3n2)CC1 [Example 13, (R)-tert-Butyl 4-(2-(4-(5-cyclopropyl-1H-pyrazol-3-ylamino)pyrrolo[1,2-f][1,2,4]triazin-2-yl)pyrrolidine-1-carbonyl)piperidine-1-carboxylate] |
